Values joined by “and” are separate entries in the source; they are usually repeats but may differ in a detail not shown here. Identical values can stand only once. Like-named read-outs stand apart in the source and are kept apart here.
What was measured:
[1] = tested on: STING signaling (IRF and NFKB-pathway activation) in THP1 Dual Cells; assay: THP-1 assay (THP1 Dual reporter cells, IRF / NFkB pathway activation); type: cell-based; conditions: for EC50: Homo sapiens, THP1 Dual cells
Description: THP1 Dual Cells™, were purchased from Invivogen (Cat. thpd-nfis), and used to determine the biological activity of the compounds on a molecular level and to determine downstream activation of STING signaling (IRF and NFKB-pathway activation). Briefly, cultured cells were seeded on the day of the experiment with a density of 1×10^5 cells per well (96-well format in RPMI supplemented with 25 mM HEPES, 10% heat inactivated FCS,). A serial dilution of the compounds was prepared and added to the cells for a total incubation time of 24 hours. The test items were tested in 8 concentrations to determine a dose-dependent activation of the NFKB and the IRF pathway. After 24 h cells were centrifuged and supernatants harvested for the detection of secreted alkaline phosphatase (measured by QUANTI-Blue™ detection solution; Cat. rep-qbs Invivogen) or lucia luciferase (measured by QUANTI-Luc™ reagent; Cat. rep-qlc1, Invivogen), respectively. The read outs were be performed according to the manufacturer's instructions. EC50 values were calculated using GraphPad Prism 9.

[2] = tested on: PBMCs from healthy donors; assay: PBMC assay, dose-dependent cytokine induction; type: cell-based; conditions: Homo sapiens, 24 h
Description: Compounds I-A to IV were additionally tested on PBMCs from healthy donors to determine the dose-dependent cytokine induction. PBMCs from buffy coats were thawed on the day of the experiment and seeded with a density of 5×10^5 cells per well (96-well format, RPMI with 5% Human Serum+1% MEM Non-Essential Amino Acids+1% Sodium Pyruvate). In line with the experiment above, a serial dilution of the compounds was prepared and added to the cells for 24 hours. On the next days, cells were centrifuged and supernatants harvested for a cytokine readout based on a multiplex assay kit from mesoscale discovery (customized multiplex panel for the cytokines: IFNα2a, IFNβ, TNFα and IL6). Impact on cell viability was determined by CellTiter Glo2.0 from promega (Cat. G9241). Both experimental read outs were performed according to the manufacturer's instructions.

[3] = tested on: HEK293 cells with a knocked-in STING receptor (IRF and IFNβ-pathway activation); assay: HEK STING assay with and without PFO (membrane permeabilization); type: cell-based; conditions: for EC50: Homo sapiens
[4] = Solubility in PBS and HEPES buffer; type: physicochemical; conditions: for solubility: aqueous buffer
Excerpt: The primary differences are that Compound XX is less hydrophobic as a result of the introduction of oxazolyl heterocyclic ring in place of the pyrazolyl heterocyclic ring of Compound XV and as a result of the introduction of an imidazopyridine ring in place of the benzimidazole ring of Compound XV.

[5] = 24 h incubation, IRF pathway, read-out: THP-1 EC50 (IRF)
[6] = IFNα in supernatant, read-out: PBMC EC50 (μM) for IFNα
[7] = IFNβ in supernatant, read-out: PBMC EC50 (μM) for IFNβ
[8] = IRF pathway, read-out: THP-1 IRF EC50
[9] = NFkB pathway, read-out: THP-1 NFkB EC50
[10] = HEK293, read-out: HEK STING EC50 no PFO [nM]
[11] = HEK293, read-out: HEK STING EC50 with PFO [nM]
[12] = HEPES Buffer pH 7.0, read-out: Solubility HEPES Buffer pH 7.0

SMILES: CCn1nc(C)cc1C(=O)Nc1nc2cc(C(N)=O)cc(OC)c2n1C/C=C/Cn1c(NC(=O)c2cc(C)nn2CC)nc2cc(C(N)=O)cc(OCCCC(=O)N3CCN(N)CC3)c21 [I-K]
- EC50 [1, 5]: 9.74 nM
- EC50 [2, 6]: 0.302 µM
- EC50 [2, 7]: 0.234 µM

SMILES: CCn1nc(C)cc1C(=O)Nc1nc2cc(C(=O)N(C)N)cc(OC)c2n1C/C=C/Cn1c(NC(=O)c2cc(C)nn2CC)nc2cc(C(N)=O)cc(OCCCN3CCOCC3)c21 [II-C]
- EC50 [1, 5]: 267 nM
- EC50 [2, 6]: 1.15 µM
- EC50 [2, 7]: 0.91 µM

SMILES: CCn1nc(C)cc1C(=O)Nc1nc2cc(C(N)=O)cc(OC)c2n1C/C=C/Cn1c(NC(=O)c2cc(C)nn2CC)nc2cc(C(N)=O)cc(OCCCC(=O)NNC)c21 [I-C]
- EC50 [2, 7]: 1.1 µM

SMILES: CCn1nc(C)cc1C(=O)Nc1nc2cc(C(N)=O)cc(OC)c2n1C/C=C/Cn1c(NC(=O)c2cc(C)nn2CC)nc2cc(C(N)=O)cc(OCCCC(=O)N(C)OC)c21 [I-I]
- EC50 [2, 6]: 0.41 µM
- EC50 [2, 7]: 0.212 µM

SMILES: CCn1nc(C)cc1C(=O)Nc1nc2cc(C(N)=O)cc(OC)c2n1C/C=C/Cn1c(NC(=O)c2cc(C)nn2CC)nc2cc(C(N)=O)cc(OCCCN3CCOCC3)c21 [diABZI, reference compound]
- EC50 [1, 8]: 16 nM
- EC50 [1, 9]: 14 nM
- EC50 [3, 10]: 1.6 nM
- EC50 [3, 11]: 1.2 nM

SMILES: CCn1nc(C)cc1C(=O)Nc1nc2cc(C(N)=O)cc(OC)c2n1C/C=C/Cn1c(NC(=O)c2cc(C)nn2CC)nc2cc(C(N)=O)cc(OCCCC(=O)NN)c21 [I-A]
- EC50 [2, 6]: 0.334 µM
- EC50 [2, 7]: 1.25 µM

SMILES: CCn1nc(C)cc1C(=O)Nc1nc2cc(CO)cc(OC)c2n1C/C=C/Cn1c(NC(=O)c2cc(C)nn2CC)nc2cc(C(N)=O)cc(OCCCN3CCOCC3)c21 [Compound XL, (E)-2-(1-ethyl-3-methyl-1H-pyrazole-5-carboxamido)-1-(4-(2-(1-ethyl-3-methyl-1H-pyrazole-5-carboxamido)-5-(hydroxymethyl)-7-methoxy-1H-benzo[d]imidazol-1-yl)but-2-en-1-yl)-7-(3-morpholinopropoxy)-1H-benzo[d]imidazole-5-carboxamide]
- THP-1 IRF MEC ([1]; Activity w/o permeabilization): 78 nM
- THP-1 NFkB MEC ([1]; Activity w/o permeabilization): 78 nM
- EC50 [1, 8]: 221 nM
- EC50 [1, 9]: 149 nM
- HEK IFNβ MEC ([3]; Activity w/o permeabilization): 0.8 nM
- HEK IFNβ MEC ([3]; Activity with permeabilization): 4.0 nM
- EC50 ([3]; HEK293, Activity w/o permeabilization, read-out: HEK IRF EC50): 0.53 nM
- EC50 ([3]; HEK293, Activity with permeabilization, read-out: HEK IRF EC50): 1.11 nM
- EC50 [3, 10]: 2.7 nM
- EC50 [3, 11]: 2.7 nM

SMILES: CCn1nc(C)cc1C(=O)Nc1nc2cc(C(N)=O)cc(OC)c2n1C/C=C/Cn1c(NC(=O)c2cc(C)nn2CC)nc2cc(C(N)=O)cc(OCCCC(=O)NO)c21 [I-G]
- EC50 [2, 6]: 2.02 µM
- EC50 [2, 7]: 0.311 µM

SMILES: CCn1nc(C)cc1C(=O)Nc1nc2cc(C(N)=O)cc(OC)c2n1C/C=C/Cn1c(NC(=O)c2cc(C)nn2CC)nc2cc(C(N)=O)cc(OCCCC(=O)N(N)CCN)c21 [I-J]
- EC50 [1, 5]: 23.4 nM
- EC50 [2, 6]: 0.321 µM
- EC50 [2, 7]: 0.293 µM

SMILES: CCn1nc(C)cc1C(=O)Nc1nc2cc(C(N)=O)cc(OC)c2n1C/C=C/Cn1c(NC(=O)c2cc(C)nn2CC)nc2cc(C(N)=O)cc(OCCCC(=O)NNCc3ccc(N)cc3)c21 [I-F]
- EC50 [2, 7]: 0.209 µM

SMILES: CCc1nc(C)oc1C(=O)Nc1nc2cc(C(N)=O)cnc2n1C/C=C/Cn1c(NC(=O)c2oc(C)nc2CC)nc2cc(C(N)=O)cc(OCCCN(C)N)c21 [Compound XX]
- Solubility versus Compound XV ([4]; Compound XX compared with Compound XV): slightly better solubility
- solubility [4, 12]: 11.5 µM and 10 µg/mL
- solubility ([4]; PBS Buffer pH 7.4, lower limit of quantitation 1 μM, read-out: Solubility PBS Buffer pH 7.4): 3.6 µM
- solubility ([4]; PBS Buffer pH 7.4, read-out: Solubility PBS Buffer pH 7.4): 3 µg/mL

SMILES: CCn1nc(C)cc1C(=O)Nc1nc2cc(C(N)=O)cc(OC)c2n1C/C=C/Cn1c(NC(=O)c2cc(C)nn2CC)nc2cc(C(N)=O)cc(OCCCC(=O)N(N)Cc3ccc(N)cc3)c21 [I-E]
- EC50 [2, 6]: 0.762 µM
- EC50 [2, 7]: 0.139 µM

SMILES: CCn1nc(C)cc1C(=O)Nc1nc2cc(C(N)=O)cc(OC)c2n1C/C=C/Cn1c(NC(=O)c2cc(C)nn2CC)nc2cc(C(N)=O)cc(OCCCC(=O)N(C)O)c21 [I-H]
- EC50 [2, 6]: 0.665 µM
- EC50 [2, 7]: 0.249 µM

SMILES: CCn1nc(C)cc1C(=O)Nc1nc2cc(CN)cc(OC)c2n1C/C=C/Cn1c(NC(=O)c2cc(C)nn2CC)nc2cc(C(N)=O)cc(OCCCN3CCOCC3)c21 [Compound XLI, 1-[(2E)-4-[5-(Aminomethyl)-2-(1-ethyl-3-methyl-1H-pyrazole-5-amido)-7-methoxy-1H-1,3-benzodiazol-1-yl]but-2-en-1-yl]-2-(1-ethyl-3-methyl-1H-pyrazole-5-amido)-7-[3-(morpholin-4-yl)propoxy]-1H-1,3-benzodiazole-5-carboxamide]
- EC50 [1, 8]: 811 nM
- EC50 [1, 9]: 364 nM
- EC50 [3, 10]: 38 nM
- EC50 [3, 11]: 25 nM

SMILES: CCn1nc(C)cc1C(=O)Nc1nc2cc(C(N)=O)cc(OC)c2n1C/C=C/Cn1c(NC(=O)c2cc(C)nn2CC)nc2cc(C(N)=O)cc(OCCCN(C)N)c21 [Compound XV]
- Solubility PBS Buffer pH 7.4 ([4]; PBS Buffer pH 7.4): <LOQ
- Solubility PBS Buffer pH 7.4 ([4]; PBS Buffer pH 7.4, lower limit of quantitation 1 μM): <LOQ^#
- solubility [4, 12]: 5.9 µM and 5 µg/mL

SMILES: CCn1nc(C)cc1C(=O)Nc1nc2cc(C(N)=O)cc(OC)c2n1C/C=C/Cn1c(NC(=O)c2cc(C)nn2CC)nc2cc(C(N)=O)cc(OCCCC(=O)N(C)N)c21 [I-B]
- EC50 [2, 7]: 0.403 µM

SMILES: CCc1nc(C)oc1C(=O)Nc1nc2cc(CO)cc(OC)c2n1C/C=C/Cn1c(NC(=O)c2oc(C)nc2CC)nc2cc(C(N)=O)cc(OCCCN3CCOCC3)c21 [Compound XLII, (E)-N-(5-carbamoyl-1-(4-(2-(4-ethyl-2-methyloxazole-5-carboxamido)-5-(hydroxymethyl)-7-methoxy-1H-benzo[d]imidazol-1-yl)but-2-en-1-yl)-7-(3-morpholinopropoxy)-1H-benzo[d]imidazol-2-yl)-4-ethyl-2-methyloxazole-5-carboxamide]
- EC50 [1, 8]: 333 nM
- EC50 [1, 9]: 290 nM
- EC50 [3, 10]: 26 nM
- EC50 [3, 11]: 14 nM

SMILES: CCn1nc(C)cc1C(=O)Nc1nc2cc(C(=O)NN)cc(OC)c2n1C/C=C/Cn1c(NC(=O)c2cc(C)nn2CC)nc2cc(C(N)=O)cc(OCCCN3CCOCC3)c21 [II-A]
- EC50 [1, 5]: 84.9 nM
- EC50 [2, 6]: 0.875 µM
- EC50 [2, 7]: 0.403 µM

Reference: patent US20260242366A1, “STING AGONISTS CONTAINING HYDRAZIDE, HYDRAZINE, AND HYDROXAMIC ACID FUNCTIONAL GROUPS” (BioNTech SE, priority 2023, published 2026)
